The supplement of paper PMC4862054

Experiments:
Settings in all cases: incubation time: 72 h
CAL-85-1 [1] = assay: normalised viability (% of control), CellTiter-Blue; higher = more viable cells (about 100 = DMSO control)
Experimental: (§1)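 DSRT, CellTiter-Blue viability, 72 h incubation. Signal is normalised to DMSO and benzethonium chloride controls. Value is the normalised response at dose 7.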

HDQ-P1 [2] = assay: as above
Experimental: as §1

CAL-148 [3] = assay: as above
Experimental: as §1

CAL-51 [4] = assay: as above
Experimental: as §1

MDA-MB-453 [5] = assay: as above
Experimental: as §1

DU-4475 [6] = assay: as above
Experimental: as §1

BT-474 [7] = assay: normalised viability (% of control), CellTiter-Blue; higher = more viable cells (100 = DMSO, 0 = benzethonium chloride kill control)
Method in brief: (§2)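 The reported figure is normalised viability at a single listed concentration of the series. Breast cancer cell lines (20 µl suspension) went onto 384-well plates holding compound in 5 µl medium for 72 h. CellTiter-Blue (2.5 µl, 2 h, 37 °C) was read by fluorescence at 560/590 nm, and each plate was scaled to vehicle at 100 and a positive kill control at 0.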

CAL-51 [8] = assay: as above
Method in brief: as §2

HCC1143 = assay: drug sensitivity score (DSS), CellTox Green (DSS (AUC-based score)); higher = stronger drug effect (viability inhibition or cytotoxicity); extreme values may be limits of the assay
Method in brief: (§3)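 The drug sensitivity score reflects the area under a fitted dose-response curve. To obtain it, breast cancer cells in 20 µl suspension were seeded into 384-well plates containing compound at 5 concentrations, 10-fold apart over a compound-specific 10,000-fold range, and incubated 72 h. CellTox Green fluorescence (485/520 nm) was read first and CellTiter-Glo luminescence second, after 10 min at room temperature. Each plate was normalised to 0.1 % DMSO and a positive kill control.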

BT-549 = assay: as above
Method in brief: as §3

CAL-120 = assay: as above
Method in brief: as §3

Hs578T = assay: as above
Method in brief: as §3

MDA-MB-436 = assay: as above
Method in brief: as §3

CAL-85-1 [9] = assay: as above
Method in brief: as §3

HCC1937 = assay: as above
Method in brief: as §3

HDQ-P1 [10] = assay: as above
Method in brief: as §3

BT-474 [11] = assay: as above
Method in brief: as §3

CAL-148 [12] = assay: as above
Method in brief: as §3

CAL-51 [13] = assay: as above
Method in brief: as §3

MDA-MB-468 = assay: as above
Method in brief: as §3

MDA-MB-453 [14] = assay: as above
Method in brief: as §3

MFM-223 = assay: as above
Method in brief: as §3

MDA-MB-231 = assay: as above
Method in brief: as §3

MCF-10A = assay: as above
Method in brief: as §3

HCC1599 = assay: as above
Method in brief: as §3

DU-4475 [15] = assay: as above
Method in brief: as §3

| SMILES | normalised viability (CAL-85-1 [1]; 1000 nM) | normalised viability (HDQ-P1 [2]; 1000 nM) | normalised viability (CAL-148 [3]; 1000 nM) | drug sensitivity score (HCC1143) | drug sensitivity score (BT-549) | drug sensitivity score (CAL-120) | drug sensitivity score (MDA-MB-436) | drug sensitivity score (CAL-85-1 [9]) | drug sensitivity score (HCC1937) | drug sensitivity score (HDQ-P1 [10]) | drug sensitivity score (BT-474 [11]) | drug sensitivity score (CAL-148 [12]) | drug sensitivity score (CAL-51 [13]) | drug sensitivity score (MDA-MB-468) | drug sensitivity score (MDA-MB-453 [14]) | drug sensitivity score (MFM-223) | drug sensitivity score (MDA-MB-231) | drug sensitivity score (MCF-10A) | drug sensitivity score (HCC1599) | drug sensitivity score (DU-4475 [15]) | also measured |
| --- | --- | --- | --- | --- | --- | --- | --- | --- | --- | --- | --- | --- | --- | --- | --- | --- | --- | --- | --- | --- | --- |
| C1CN1c1nc(N2CC2)nc(N2CC2)n1 [Triethylenemelamine] | 98.4% | 102% | 110% |  |  |  |  |  |  |  |  |  |  |  |  |  |  |  |  |  | normalised viability (CAL-51 [4]; 1000 nM): 104%; normalised viability (MDA-MB-453 [5]; 1000 nM): 94.4%; normalised viability (DU-4475 [6]; 1000 nM): 102%; normalised viability (BT-474 [7]; 1 nM): 117%; normalised viability (CAL-51 [8]; 1 nM): 101% |
| CC(=O)Nc1cccc(-n2c(=O)n(C3CC3)c(=O)c3c(Nc4ccc(I)cc4F)n(C)c(=O)c(C)c32)c1 [Trametinib] |  |  |  | 0 | 0 | 1.74 | 0 | 7.34 | 0 | 0 | 0 | 0 | 0 | 0 | 0 | 0 | 12 | 4.18 | 0 | 7.36 | drug sensitivity score (Hs578T): 0 |
| Cc1cnc(NC(=O)Nc2cc(Br)c(C)cc2OC[C@@H]2CNCCO2)cn1 [Rabusertib] |  |  |  | 0 | 0 | 0 | 0 | 0 | 0 | 0 | 0 | 0.673 | 0 | 0 | 0 | 0 | 0 | 0 | 0 | 0 | drug sensitivity score (Hs578T): 0 |
| CCc1cncnc1N1CCN(Cc2nc3ccc(C(F)(F)F)cc3[nH]2)CC1 | 101% | 95.9% | 124% | 0 | 0 | 0 | 0 | 0 | 0 | 0 | 0 | 0 | 0 | 0 | 0 | 0 | 0 | 0 | 0 | 0 | normalised viability (CAL-51 [4]; 1000 nM): 87%; normalised viability (MDA-MB-453 [5]; 1000 nM): 96.5%; normalised viability (DU-4475 [6]; 1000 nM): 101%; normalised viability (BT-474 [7]; 1 nM): 102%; normalised viability (CAL-51 [8]; 1 nM): 90.8% |
| C=CC(=O)N1CCC[C@@H](n2nc(-c3ccc(Oc4ccccc4)cc3)c3c(N)ncnc32)C1 [Ibrutinib] |  |  |  | 0 | 0 | 0 | 0 | 4.71 | 0 | 0.282 | 2.25 | 0 | 0.377 | 0 | 1.03 | 0 | 0 | 0 | 0 | 0 | drug sensitivity score (Hs578T): 0 |
| CC[C@H](Nc1ncnc2[nH]cnc12)c1nc2cccc(F)c2c(=O)n1-c1ccccc1 [CAL-101] | 80.5% | 82.4% | 79.9% |  |  |  |  |  |  |  |  |  |  |  |  |  |  |  |  |  | normalised viability (CAL-51 [4]; 1000 nM): 81.9%; normalised viability (MDA-MB-453 [5]; 1000 nM): 87.7%; normalised viability (DU-4475 [6]; 1000 nM): 87.8%; normalised viability (BT-474 [7]; 1 nM): 100%; normalised viability (CAL-51 [8]; 1 nM): 88.6% |
| C=CC(=O)N1CCC[C@@H](n2nc(-c3ccc(Oc4ccccc4)cc3)c3c(N)ncnc32)C1 |  |  |  |  |  |  |  |  |  |  |  |  |  |  |  |  |  |  |  |  | normalised viability (CAL-85-1 [1]; 100 nM): 77.3%; normalised viability (HDQ-P1 [2]; 100 nM): 111%; normalised viability (CAL-148 [3]; 100 nM): 98%; normalised viability (CAL-51 [4]; 100 nM): 91.9%; normalised viability (MDA-MB-453 [5]; 100 nM): 39.5%; normalised viability (DU-4475 [6]; 100 nM): 92.4%; normalised viability (BT-474 [7]; 0.1 nM): 107%; normalised viability (CAL-51 [8]; 0.1 nM): 93.1% |
| COc1cc2c(NC3CCN(C(C)C)CC3)nc(C3CCCCC3)nc2cc1OCCCN1CCCC1 [UNC0638] |  |  |  | 0 | 8.31 | 6.94 | 4.24 | 6.93 | 7.61 | 1.42 | 7.51 | 6.35 | 9.03 | 7.09 | 6.8 | 3.4 | 9.02 | 7.41 | 1.89 | 0 |  |
| Cc1ccc(-c2cc(C(F)(F)F)nn2-c2ccc(S(N)(=O)=O)cc2)cc1 [Celecoxib] | 69.9% | 83.2% | 75.5% | 0 | 0 | 0 | 0 | 0 | 0 | 0 | 0 | 0 | 0 | 0 | 0 | 0 | 0 | 0 | 0 | 0 | normalised viability (CAL-51 [4]; 1000 nM): 93.5%; normalised viability (MDA-MB-453 [5]; 1000 nM): 103%; normalised viability (DU-4475 [6]; 1000 nM): 110%; normalised viability (BT-474 [7]; 1 nM): 76.1%; normalised viability (CAL-51 [8]; 1 nM): 91.3% |
| CCN(CC)CCCC(C)Nc1c2ccc(Cl)cc2nc2ccc(OC)cc12 (stereo not given) [Mepacrine] | 90.3% | 84.9% | 81.4% | 0 | 0 | 0 | 0 | 0 | 0 | 0 | 0 | 0 | 0 | 0.235 | 0 | 0 | 5 | 0 | 0 | 0 | normalised viability (CAL-85-1 [1]; 99 nM): 97.8%; normalised viability (HDQ-P1 [2]; 99 nM): 86.9%; normalised viability (CAL-148 [3]; 99 nM): 122%; normalised viability (CAL-51 [4]; 99 nM): 96.2%; normalised viability (CAL-51 [4]; 1000 nM): 103%; normalised viability (MDA-MB-453 [5]; 99 nM): 97.2%; normalised viability (MDA-MB-453 [5]; 1000 nM): 101%; normalised viability (DU-4475 [6]; 99 nM): 97.3%; normalised viability (DU-4475 [6]; 1000 nM): 84.3%; normalised viability (BT-474 [7]; 0.099 nM): 74.2%; normalised viability (BT-474 [7]; 1 nM): 113%; normalised viability (CAL-51 [8]; 0.099 nM): 90.8%; normalised viability (CAL-51 [8]; 1 nM): 97.2% |
| O=C(/C=C/c1cccnc1)NCCCCC1CCN(C(=O)c2ccccc2)CC1 [FK-866] |  |  |  |  |  |  |  |  |  |  |  |  |  |  |  |  |  |  |  |  | normalised viability (CAL-85-1 [1]; 100 nM): 54.6%; normalised viability (HDQ-P1 [2]; 100 nM): 48.9%; normalised viability (CAL-148 [3]; 100 nM): 53.7%; normalised viability (CAL-51 [4]; 100 nM): 44.3%; normalised viability (MDA-MB-453 [5]; 100 nM): 21.1%; normalised viability (DU-4475 [6]; 100 nM): 6.4%; normalised viability (BT-474 [7]; 0.1 nM): 99.3%; normalised viability (CAL-51 [8]; 0.1 nM): 101% |
| NCCCNCCSP(=O)(O)O [Amifostine] | 81.2% | 89.8% | 90.6% |  |  |  |  |  |  |  |  |  |  |  |  |  |  |  |  |  | normalised viability (CAL-51 [4]; 1000 nM): 109%; normalised viability (MDA-MB-453 [5]; 1000 nM): 92.9%; normalised viability (DU-4475 [6]; 1000 nM): 82.7%; normalised viability (BT-474 [7]; 1 nM): 85.7%; normalised viability (CAL-51 [8]; 1 nM): 106% |
| Cc1cnc(NC(=O)Nc2cc(Br)c(C)cc2OC[C@@H]2CNCCO2)cn1 |  |  |  |  |  |  |  |  |  |  |  |  |  |  |  |  |  |  |  |  | normalised viability (CAL-85-1 [1]; 100 nM): 85.9%; normalised viability (HDQ-P1 [2]; 100 nM): 110%; normalised viability (CAL-148 [3]; 100 nM): 101%; normalised viability (CAL-51 [4]; 100 nM): 91.2%; normalised viability (MDA-MB-453 [5]; 100 nM): 88.7%; normalised viability (DU-4475 [6]; 100 nM): 109%; normalised viability (BT-474 [7]; 0.1 nM): 107%; normalised viability (CAL-51 [8]; 0.1 nM): 86.8% |
| CC(=O)Nc1cccc(-n2c(=O)n(C3CC3)c(=O)c3c(Nc4ccc(I)cc4F)n(C)c(=O)c(C)c32)c1 |  |  |  |  |  |  |  |  |  |  |  |  |  |  |  |  |  |  |  |  | normalised viability (CAL-85-1 [1]; 25 nM): 60.4%; normalised viability (HDQ-P1 [2]; 25 nM): 63.6%; normalised viability (CAL-148 [3]; 25 nM): 91.2%; normalised viability (CAL-51 [4]; 25 nM): 69%; normalised viability (MDA-MB-453 [5]; 25 nM): 71.8%; normalised viability (DU-4475 [6]; 25 nM): -0.2%; normalised viability (BT-474 [7]; 0.025 nM): 100%; normalised viability (CAL-51 [8]; 0.025 nM): 98.7% |
